The target in one experiment is Melanocortin receptor 5 (Homo sapiens, UniProt P33032). The class given is cell membranes, HEK293, Membrane. To be noted: for Ki: read-out: Ki. As to all read-outs here: in other assays of this panel Not Active means under 50% inhibition at 10 µM.
The target of experiment [1] is Delta-type opioid receptor (Homo sapiens, UniProt P41143). The class given is cell membranes, Membrane. To be noted: hek293. Also: in other assays of this panel Not Active means under 50% inhibition at 10 µM.
Delta-type opioid receptor, sequence (P41143 whole entry): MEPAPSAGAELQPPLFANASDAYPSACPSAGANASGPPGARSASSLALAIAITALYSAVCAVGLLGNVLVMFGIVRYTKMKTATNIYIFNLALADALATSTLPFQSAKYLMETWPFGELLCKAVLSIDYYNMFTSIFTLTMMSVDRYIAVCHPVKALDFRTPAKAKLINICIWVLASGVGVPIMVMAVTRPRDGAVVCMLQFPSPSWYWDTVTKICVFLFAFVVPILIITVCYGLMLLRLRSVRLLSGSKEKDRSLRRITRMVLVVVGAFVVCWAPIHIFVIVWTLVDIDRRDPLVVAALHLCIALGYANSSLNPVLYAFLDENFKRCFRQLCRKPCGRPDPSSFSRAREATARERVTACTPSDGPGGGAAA
The nature of experiment [2]: DRUGMATRIX: Interleukin IL-1 radioligand binding (ligand: [125I] interleukin 1beta). The class given is cell membranes, Membrane. Conditions: nih3t3; Not Active = under 50% inhibition at 10 µM.
Experiment [3] is described as follows: DRUGMATRIX: Platelet-Derived Growth Factor (PDGF) radioligand binding (ligand: [125I] PDGF). The experiment is classed as cell-based. To be noted: nih3t3; Not Active = under 50% inhibition at 10 µM.
Experiment [4] has as its target T1, Cholecystokinin receptor type A (Homo sapiens, UniProt P32238). Also: in other assays of this panel Not Active means under 50% inhibition at 10 µM.
T1 sequence (P32238 whole entry): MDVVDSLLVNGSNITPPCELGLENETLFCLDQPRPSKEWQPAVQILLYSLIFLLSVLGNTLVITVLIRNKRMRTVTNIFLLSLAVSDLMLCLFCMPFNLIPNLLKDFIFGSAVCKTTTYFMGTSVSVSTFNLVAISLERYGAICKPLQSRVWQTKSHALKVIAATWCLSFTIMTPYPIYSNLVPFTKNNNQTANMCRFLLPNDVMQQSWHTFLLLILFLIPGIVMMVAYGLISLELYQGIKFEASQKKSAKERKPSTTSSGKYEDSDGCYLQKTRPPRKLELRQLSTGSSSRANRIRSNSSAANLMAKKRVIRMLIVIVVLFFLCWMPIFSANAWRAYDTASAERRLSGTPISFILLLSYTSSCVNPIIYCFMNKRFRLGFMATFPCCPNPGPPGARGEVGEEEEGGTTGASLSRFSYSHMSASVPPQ
The class given is cell membranes, Membrane. To be noted: 1321-n1.

For experiment [5], the target named is T2, C-X-C chemokine receptor type 2 (Homo sapiens, UniProt P25025). Also: in other assays of this panel Not Active means under 50% inhibition at 10 µM.
T2 sequence (P25025 whole entry): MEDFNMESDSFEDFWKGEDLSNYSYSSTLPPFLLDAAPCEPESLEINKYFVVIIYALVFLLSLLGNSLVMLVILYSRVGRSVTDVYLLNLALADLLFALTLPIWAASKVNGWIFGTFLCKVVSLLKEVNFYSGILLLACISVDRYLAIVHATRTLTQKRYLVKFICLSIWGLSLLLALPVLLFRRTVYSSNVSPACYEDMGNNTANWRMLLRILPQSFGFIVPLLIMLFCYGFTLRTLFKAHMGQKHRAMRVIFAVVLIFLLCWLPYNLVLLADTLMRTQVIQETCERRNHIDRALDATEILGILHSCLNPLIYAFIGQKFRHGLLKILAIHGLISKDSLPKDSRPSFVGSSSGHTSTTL
The class given is cell membranes, Membrane. To be noted: cho-k1.

In experiment [6] the target is T3, 5-hydroxytryptamine receptor 2C (Homo sapiens, UniProt P28335).
T3 sequence (P28335 whole entry): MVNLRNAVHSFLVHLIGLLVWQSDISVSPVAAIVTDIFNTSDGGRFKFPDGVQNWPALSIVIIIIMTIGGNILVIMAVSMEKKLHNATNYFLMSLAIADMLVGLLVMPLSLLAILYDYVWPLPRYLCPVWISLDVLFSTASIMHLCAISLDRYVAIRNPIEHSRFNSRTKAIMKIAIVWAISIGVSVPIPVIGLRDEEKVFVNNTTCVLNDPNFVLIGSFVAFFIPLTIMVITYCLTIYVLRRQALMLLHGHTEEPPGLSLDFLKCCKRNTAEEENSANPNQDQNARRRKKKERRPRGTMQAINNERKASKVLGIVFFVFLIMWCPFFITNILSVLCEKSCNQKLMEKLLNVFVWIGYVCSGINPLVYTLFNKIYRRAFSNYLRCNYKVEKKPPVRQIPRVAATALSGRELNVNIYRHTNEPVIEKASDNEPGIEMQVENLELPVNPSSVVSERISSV
The experiment is described as follows: DRUGMATRIX: Serotonin (5-Hydroxytryptamine) 5-HT2C radioligand binding (ligand: [3H] Mesulergine). The experiment is classed as cell membranes, CHO-K1, Membrane. To be noted: Not Active = under 50% inhibition at 10 µM; for Ki: read-out: Ki.

A further experiment concerns the target Insulin receptor (Rattus norvegicus, UniProt P15127). The class given is cell membranes, Wistar, Liver, Membrane. Also: in other assays of this panel Not Active means under 50% inhibition at 10 µM.

The record followed here is ChEMBL document CHEMBL1909046, “DrugMatrix in vitro pharmacology data”.

The structures appear in SMILES notation.

In general, IC50 refers to the midpoint of a concentration-inhibition curve. What is called Ki is the dissociation constant of the complex between target and ligand, obtained from inhibition or displacement.

Melanocortin receptor 5, sequence (P33032 whole entry): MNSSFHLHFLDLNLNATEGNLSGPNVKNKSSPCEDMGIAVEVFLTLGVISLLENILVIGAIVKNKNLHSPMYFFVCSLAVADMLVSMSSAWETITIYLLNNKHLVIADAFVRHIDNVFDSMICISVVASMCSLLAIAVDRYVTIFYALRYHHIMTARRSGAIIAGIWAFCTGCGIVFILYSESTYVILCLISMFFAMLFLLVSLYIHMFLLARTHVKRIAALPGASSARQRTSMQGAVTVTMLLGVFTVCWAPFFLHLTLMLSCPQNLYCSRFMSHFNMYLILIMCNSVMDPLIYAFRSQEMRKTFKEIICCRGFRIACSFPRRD
Insulin receptor, sequence (P15127 27-759 limits assumed): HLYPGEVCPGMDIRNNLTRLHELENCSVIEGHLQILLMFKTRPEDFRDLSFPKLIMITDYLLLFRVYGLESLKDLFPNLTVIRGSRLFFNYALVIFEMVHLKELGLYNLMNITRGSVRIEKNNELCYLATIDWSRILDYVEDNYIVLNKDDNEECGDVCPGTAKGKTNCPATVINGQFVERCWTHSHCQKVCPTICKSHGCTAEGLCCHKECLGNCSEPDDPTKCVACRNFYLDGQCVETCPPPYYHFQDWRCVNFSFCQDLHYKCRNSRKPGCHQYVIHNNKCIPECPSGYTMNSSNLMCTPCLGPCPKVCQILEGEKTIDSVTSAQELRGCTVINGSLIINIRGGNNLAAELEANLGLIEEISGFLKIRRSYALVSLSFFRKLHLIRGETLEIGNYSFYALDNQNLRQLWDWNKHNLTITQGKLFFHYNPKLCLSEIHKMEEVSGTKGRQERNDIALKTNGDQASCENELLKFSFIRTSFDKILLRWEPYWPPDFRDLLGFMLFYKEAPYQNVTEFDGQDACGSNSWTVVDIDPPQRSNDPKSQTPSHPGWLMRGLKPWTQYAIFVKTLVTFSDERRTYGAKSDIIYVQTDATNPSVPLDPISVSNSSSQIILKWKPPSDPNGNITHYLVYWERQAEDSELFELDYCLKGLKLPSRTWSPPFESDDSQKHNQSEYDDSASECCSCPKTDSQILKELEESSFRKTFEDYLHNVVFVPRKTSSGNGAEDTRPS
Insulin receptor, sequence (P15127 764-1383 limits assumed): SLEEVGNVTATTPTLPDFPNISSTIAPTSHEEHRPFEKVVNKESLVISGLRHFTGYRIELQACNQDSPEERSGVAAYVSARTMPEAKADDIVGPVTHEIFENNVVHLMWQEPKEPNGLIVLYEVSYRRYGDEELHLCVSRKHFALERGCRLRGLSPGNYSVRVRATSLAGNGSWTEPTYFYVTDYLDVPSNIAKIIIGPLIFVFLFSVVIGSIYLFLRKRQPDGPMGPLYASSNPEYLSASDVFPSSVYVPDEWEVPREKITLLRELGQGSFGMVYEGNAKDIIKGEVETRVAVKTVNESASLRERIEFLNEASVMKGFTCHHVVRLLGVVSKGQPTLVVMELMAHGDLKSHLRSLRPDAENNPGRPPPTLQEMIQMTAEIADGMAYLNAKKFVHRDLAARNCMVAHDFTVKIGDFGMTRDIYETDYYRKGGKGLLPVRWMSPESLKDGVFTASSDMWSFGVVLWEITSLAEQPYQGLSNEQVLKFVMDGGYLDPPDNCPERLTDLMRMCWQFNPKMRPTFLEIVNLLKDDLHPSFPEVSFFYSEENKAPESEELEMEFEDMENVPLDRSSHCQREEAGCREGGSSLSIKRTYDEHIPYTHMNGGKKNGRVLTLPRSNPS

Consider `Cc1c(C)c2c(c(C)c1O)CCC(C)(CN1CCN(c3cc(N4CCCC4)nc(N4CCCC4)n3)CC1)O2` (stereo not drawn), for which the IC50 result (on Melanocortin receptor 5 (hek293); in experiment [1]; in experiment [2]; in experiment [3]; in experiment [4]; in experiment [5]) was “Not Active” throughout. For the same molecule, the IC50 was 7560 nM in experiment [6] (read-out: IC50) and “Not Active” against Insulin receptor. Further, the inhibition constant Ki entry in experiment [2] is “Not Active”; in experiment [3], “Not Active”; in experiment [6], 3960 nM.
For `COc1ccc(CCN(C)CCCC(C#N)(c2ccc(OC)c(OC)c2)C(C)C)cc1OC` (stereo not drawn), the IC50 result (against Melanocortin receptor 5 (hek293); in experiment [1]; in experiment [2]; in experiment [3]; in experiment [4]; in experiment [5]) was “Not Active” in each case. Besides, on Insulin receptor, the concentration for half-maximal inhibition (IC50) entry was “Not Active”. The Ki result in experiment [2] and in experiment [3] was “Not Active” throughout.
As to `CC(C)Cc1ccc([C@@H](C)C(=O)O)cc1` [(R)-IBUPROPHEN], the IC50 result (against Melanocortin receptor 5 (hek293); in experiment [1]; in experiment [2]; in experiment [3]; in experiment [4]; in experiment [5]) was “Not Active” each time. The IC50 result (in experiment [6] (cho-k1); at Insulin receptor) was “Not Active” in each case. Moreover, the inhibition constant Ki result in experiment [2] and in experiment [3] was “Not Active” throughout.
Turning to `CN(C)CCOC(c1ccccc1)c1ccccc1` [DIPHENHYDRAMINE], the IC50 entry (at Melanocortin receptor 5 (hek293); in experiment [1]; in experiment [4]; in experiment [5]; at Insulin receptor) was “Not Active” in each case.
As to `Clc1ccc(COC(Cn2ccnc2)c2ccc(Cl)cc2Cl)cc1` (stereo not drawn) [ECONAZOLE], the IC50 on Melanocortin receptor 5 (read-out: IC50) is 39500 nM; in experiment [4], “Not Active”; in experiment [5], “Not Active”; against Insulin receptor it was “Not Active”. The Ki on Melanocortin receptor 5 was 37100 nM.
Turning to `CCN(CC)CCOc1ccc(/C(=C(/Cl)c2ccccc2)c2ccccc2)cc1` [ENCLOMIPHENE], the IC50 result against Melanocortin receptor 5 (hek293) is “Not Active”; in experiment [1], “Not Active”; in experiment [4], “Not Active”; in experiment [5] it was “Not Active”; in experiment [6] (read-out: IC50), 1270 nM; at Insulin receptor it was “Not Active”. The Ki in experiment [6] came out at 666 nM.
Turning to `Fc1ccc(C(c2ccc(F)cc2)N2CCN(C/C=C/c3ccccc3)CC2)cc1` [FLUNARIZINE], the IC50 entry at Melanocortin receptor 5 (hek293) is “Not Active”; in experiment [1], “Not Active”; in experiment [4] it was “Not Active”; in experiment [5], “Not Active”; in experiment [6] (read-out: IC50) it was 669 nM; against Insulin receptor, “Not Active”. For the same molecule, the Ki in experiment [6] stood at 351 nM.
On to `CNCCC(Oc1ccc(C(F)(F)F)cc1)c1ccccc1` (stereo not drawn) [FLUOXETINE], for which the IC50 result (at Melanocortin receptor 5 (hek293); in experiment [1]; in experiment [4]; in experiment [5]; on Insulin receptor) was “Not Active” in each case.
On to `Cc1ccc(NC(=O)c2ccc(CN3CCN(C)CC3)cc2)cc1Nc1nccc(-c2cccnc2)n1` [IMATINIB], for which the IC50 entry (at Melanocortin receptor 5 (hek293); in experiment [1]; in experiment [4]; in experiment [5]; in experiment [6] (cho-k1); on Insulin receptor) was “Not Active” in each case.
Consider `CC(C)Oc1ccc2c(=O)c(-c3ccccc3)coc2c1` [IPRIFLAVONE], for which the concentration for half-maximal inhibition (IC50) result (on Melanocortin receptor 5 (hek293); in experiment [1]; in experiment [2]; in experiment [3]; in experiment [4]; in experiment [5]) was “Not Active” in each case. Besides, the IC50 result (in experiment [6] (cho-k1); against Insulin receptor) was “Not Active” each time. Moreover, the Ki result in experiment [2] and in experiment [3] was “Not Active” throughout.
As to `CC(C)NCC(O)c1ccc(O)c(O)c1` (stereo not drawn) [ISOPROTERENOL], the IC50 result (on Melanocortin receptor 5 (hek293); in experiment [1]; in experiment [2]; in experiment [3]; in experiment [4]; in experiment [5]) was “Not Active” in each case. Besides, the IC50 result (in experiment [6] (cho-k1); at Insulin receptor) was “Not Active” each time. Also, the Ki result in experiment [2] and in experiment [3] was “Not Active” throughout.
On to `CNC1(c2ccccc2Cl)CCCCC1=O` (stereo not drawn) [KETAMINE], for which the IC50 result (on Melanocortin receptor 5 (hek293); in experiment [1]; in experiment [2]; in experiment [3]; in experiment [4]; in experiment [5]) was “Not Active” each time. In addition, the IC50 entry (in experiment [6] (cho-k1); on Insulin receptor) was “Not Active” in each case. The Ki entry in experiment [2] and in experiment [3] was “Not Active” throughout.
Regarding `N#Cc1ccc(C(c2ccc(C#N)cc2)n2cncn2)cc1` [LETROZOLE], the IC50 entry (at Melanocortin receptor 5 (hek293); in experiment [1]; in experiment [2]; in experiment [3]; in experiment [4]; in experiment [5]) was “Not Active” throughout. In addition, the IC50 entry (in experiment [6] (cho-k1); against Insulin receptor) was “Not Active” in each case. The Ki entry in experiment [2] and in experiment [3] was “Not Active” throughout.
Regarding `CCN1CCC[C@H]1CNC(=O)c1cc(S(N)(=O)=O)ccc1OC` [LEVOSULPIRIDE], the IC50 entry (against Melanocortin receptor 5 (hek293); in experiment [1]; in experiment [2]; in experiment [3]; in experiment [4]; in experiment [5]) was “Not Active” in each case. For the same molecule, the IC50 result (in experiment [6] (cho-k1); against Insulin receptor) was “Not Active” throughout. The Ki entry in experiment [2] and in experiment [3] was “Not Active” each time.
Regarding `CCN(CC)CC(=O)Nc1c(C)cccc1C` [LIDOCAINE], the IC50 result (on Melanocortin receptor 5 (hek293); in experiment [1]; in experiment [2]; in experiment [3]; in experiment [4]; in experiment [5]) was “Not Active” throughout. Moreover, the IC50 result (in experiment [6] (cho-k1); against Insulin receptor) was “Not Active” throughout. Besides, the Ki result in experiment [2] and in experiment [3] was “Not Active” each time.
On to `O=C1Nc2ccc(Cl)cc2C(c2ccccc2Cl)=NC1O` (stereo not drawn) [LORAZEPAM], for which the IC50 entry (against Melanocortin receptor 5 (hek293); in experiment [1]; in experiment [2]; in experiment [3]; in experiment [4]; in experiment [5]) was “Not Active” in each case. The IC50 result (in experiment [6] (cho-k1); at Insulin receptor) was “Not Active” throughout. Moreover, the Ki result in experiment [2] and in experiment [3] was “Not Active” in each case.
With `CO[C@@H]1[C@@H](OC)[C@H](C)[C@@](O)(CC(=O)O)O[C@H]1[C@H](C)[C@H]1O[C@@]2(CC[C@@](C)([C@H]3CC[C@@](C)([C@@H]4O[C@@H]([C@H]5O[C@](C)(O)[C@H](C)C[C@@H]5C)C[C@@H]4O[C@@H]4C[C@H](OC)[C@@H](OC)[C@H](C)O4)O3)O2)C[C@H](O)[C@H]1C` [MADURAMICIN ACID], the 50% inhibitory concentration (IC50) entry (against Melanocortin receptor 5 (hek293); in experiment [1]; in experiment [2]; in experiment [3]; in experiment [4]; in experiment [5]) was “Not Active” throughout. In addition, the 50% inhibitory concentration (IC50) in experiment [6] (read-out: IC50) is 34 nM; against Insulin receptor, “Not Active”. Besides, the results for the Ki result in experiment [2], in experiment [3] and in experiment [6] were “Not Active”, “Not Active” and 18 nM, respectively.
Regarding `CN[C@H]1CC[C@@H](c2ccc(Cl)c(Cl)c2)c2ccccc21` [SERTRALINE], the IC50 at Melanocortin receptor 5 (read-out: IC50) is 4600 nM; in experiment [1], “Not Active”; in experiment [4] it was “Not Active”; in experiment [5], “Not Active”; in experiment [6] (read-out: IC50) it was 1080 nM; at Insulin receptor, “Not Active”. For the same molecule, at Melanocortin receptor 5, the Ki was found to be 4310 nM.
